# Patent publication US5438052A, “Cephalosporin derivatives” (Hoffmann-La Roche Inc., priority 1991, dated 1995)
# Like-named read-outs stand apart in the source and are kept apart here.
# Tests used:
# E. cloacae P99 = assay: Minimum inhibitory concentration in vitro, agar dilution method; type: cell-based; settings: Enterobacter cloacae
# Text: (§1) 1. Minimum Inhibitory Concentration in vitro
# (§2) The activities ascertained, minimum inhibitory concentration (MIC) in μg/ml, are compiled in Table 1 hereinafter: […]
# E. aerogenes CF153 = assay: as above; type: cell-based; settings: Klebsiella aerogenes, CF153
# Text: as §1, §2
# P. aeruginosa 27853 = assay: as above; type: cell-based; settings: Pseudomonas aeruginosa
# Text: as §1, §2
# E. coli 25922 [1] = assay: as above; type: cell-based; settings: Escherichia coli
# Text: as §1, §2
# K. pneumoniae 418 = assay: as above; type: cell-based; settings: Klebsiella pneumoniae
# Text: as §1, §2
# P. aeruginosa MK1184 = assay: as above; type: cell-based; settings: Pseudomonas aeruginosa
# Text: as §1, §2
# P. aeruginosa BA = assay: as above; type: cell-based; settings: Pseudomonas aeruginosa
# Text: as §1, §2
# E. cloacae 908SSi = assay: as above; type: cell-based; settings: Enterobacter cloacae
# Text: as §1, §2
# S. marcescens 69438 = assay: as above; type: cell-based; settings: Serratia marcescens
# Text: as §1, §2
# S. pyogenes 15 = assay: as above; type: cell-based; settings: Streptococcus pyogenes
# Text: as §1, §2
# P. mirabilis 2117 = assay: as above; type: cell-based; settings: Proteus mirabilis
# Text: as §1, §2
# P. vulgaris 1028 = assay: as above; type: cell-based; settings: Proteus vulgaris
# Text: as §1, §2
# E. cloacae 908R = assay: as above; type: cell-based; settings: Enterobacter cloacae
# Text: as §1, §2
# S. aureus 6538 = assay: as above; type: cell-based; settings: Staphylococcus aureus
# Text: as §1, §2
# P. aeruginosa 799/WT = assay: as above; type: cell-based; settings: Pseudomonas aeruginosa
# Text: as §1, §2
# K. oxytoca 1082 = assay: as above; type: cell-based; settings: Klebsiella oxytoca
# Text: as §1, §2
# C. freundii 902 = assay: as above; type: cell-based; settings: Citrobacter freundii
# Text: as §1, §2
# P. aeruginosa 799/61 = assay: as above; type: cell-based; settings: Pseudomonas aeruginosa
# Text: as §1, §2
# E. coli 25922 [2] = assay: Experimental systemic septicaemia in the mouse; type: in vivo; settings: 96 h
# Method in brief: (§3)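 Albino mice (16-20 g) infected i.p. with overnight culture at about 5-100× the 48 h LD50; groups of 5. Compounds given s.c. in 2% Tween 80 at 1 and 3 h post-infection (P. aeruginosa also at 5 h). ED50 (mg/kg s.c.) by Probit from 4-day survival.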
# S. aureus Schoch = assay: Experimental systemic septicaemia in the mouse; type: in vivo; settings: Staphylococcus aureus, sc, 96 h
# Method in brief: as §3
# [3] = tested on: Pseudomonas aeruginosa BA; assay: Experimental systemic septicaemia in the mouse; type: in vivo; settings: sc, 96 h
# Method in brief: as §3
# S. pneumoniae BA = assay: Minimum inhibitory concentration in vitro, agar dilution method; type: cell-based; settings: Streptococcus pneumoniae
# Text: as §1, §2
smiles,measurement,setting,value
"Cc1cc(SCC2=C(C(=O)[O-])N3C(=O)[C@@H](NC(=O)/C(=N\OCc4ccc(O)c(O)c4)c4csc(N)n4)[C@H]3SC2)n2nc(CS(=O)(=O)c3ccc(O)c(O)c3)nc2n1.[Na+] [Example 11, (6R,7R)-7-[(Z)-2-(2-amino-4-thiazolyl)-2-[[(3,4-dihydroxybenzyl)oxy]imino]acetamido]-3-[[[2-[[(3,4-dihydroxyphenyl)sulphonyl]methyl]-5-methyl-s-triazolo[1,5-a]pyrimidin-7-yl]thio]methyl]-8-oxo-5-thia-1-azabicyclo[4.2.0]oct-2-ene-2-carboxylic acid sodium salt (1:1)]",MIC,E. cloacae P99,16 µg/mL
same,MIC,E. aerogenes CF153,1 µg/mL
same,MIC,P. aeruginosa 27853; 27853,< 0.1 µg/mL
same,MIC,E. coli 25922 [1]; 25922,< 0.1 µg/mL
same,MIC,K. pneumoniae 418; 418,< 0.1 µg/mL
same,MIC,P. aeruginosa MK1184; MK1184,< 0.1 µg/mL
same,MIC,P. aeruginosa BA,0.12 µg/mL
same,MIC,E. cloacae 908SSi; 908SSI,4 µg/mL
same,MIC,S. marcescens 69438; 69438,0.25 µg/mL
same,MIC,S. pyogenes 15; 15,2 µg/mL
same,MIC,P. mirabilis 2117; 2117,0.12 µg/mL
same,MIC,P. vulgaris 1028; 1028,0.25 µg/mL
same,MIC,E. cloacae 908R; 908R,2 µg/mL
same,MIC,S. aureus 6538; 6538,8 µg/mL
same,MIC,P. aeruginosa 799/WT; 799/WT,0.12 µg/mL
same,MIC,K. oxytoca 1082; 1082,< 0.1 µg/mL
same,MIC,C. freundii 902; 902,0.12 µg/mL
same,MIC,P. aeruginosa 799/61; 799/61,< 0.1 µg/mL
same,ED50,"E. coli 25922 [2]; Escherichia coli, 25922, sc",< 0.05 mg/kg
same,ED50,S. aureus Schoch,3.5 mg/kg
same,ED50,[3],0.035 mg/kg
Cc1cc(SCC2=C(C(=O)O)N3C(=O)[C@@H](NC(=O)/C(=N\OC(C)(C)C(=O)NNC(=O)c4ccc(O)c(O)c4)c4csc(N)n4)[C@H]3SC2)n2nc(COC(=O)c3ccc(O)c(O)c3)nc2n1 [Example 43],MIC,E. cloacae P99,0.12 µg/mL
same,MIC,"P. aeruginosa 27853; P. aeruginosa 27853, agar dilution, read-out: MIC",0.25 µg/mL
same,MIC,"E. coli 25922 [1]; E. coli 25922, agar dilution, read-out: MIC",< 0.1 µg/mL
same,MIC,"K. pneumoniae 418; K. pneumoniae 418, agar dilution, read-out: MIC",< 0.1 µg/mL
same,MIC,"P. aeruginosa MK1184; P. aeruginosa MK1184, agar dilution, read-out: MIC",< 0.1 µg/mL
same,MIC,"P. aeruginosa BA; P. aeruginosa BA, agar dilution, read-out: MIC",< 0.1 µg/mL
same,MIC,"E. cloacae 908SSi; E. cloacae 908SSi, agar dilution, read-out: MIC",2 µg/mL
same,MIC,"S. marcescens 69438; S. marcescens 69438, agar dilution, read-out: MIC",0.12 µg/mL
same,MIC,"S. pyogenes 15; S. pyogenes 15, agar dilution, read-out: MIC",8 µg/mL
same,MIC,"P. mirabilis 2117; P. mirabilis 2117, agar dilution, read-out: MIC",0.12 µg/mL
same,MIC,"P. vulgaris 1028; P. vulgaris 1028, agar dilution, read-out: MIC",0.12 µg/mL
same,MIC,"E. cloacae 908R; E. cloacae 908R, agar dilution, read-out: MIC",0.12 µg/mL
same,MIC,"S. pneumoniae BA; S. pneumoniae BA, agar dilution, read-out: MIC",4 µg/mL
same,MIC,"S. aureus 6538; S. aureus 6538, agar dilution, read-out: MIC",16 µg/mL
same,MIC,"P. aeruginosa 799/WT; P. aeruginosa 799/WT, agar dilution, read-out: MIC",< 0.1 µg/mL
same,MIC,"K. oxytoca 1082; K. oxytoca 1082, agar dilution, read-out: MIC",< 0.1 µg/mL
same,MIC,"C. freundii 902; C. freundii 902, agar dilution, read-out: MIC",< 0.1 µg/mL
same,MIC,"P. aeruginosa 799/61; P. aeruginosa 799/61, agar dilution, read-out: MIC",< 0.1 µg/mL
same,ED50,"E. coli 25922 [2]; Escherichia coli, sc, E. coli 25922, albino mice, s.c. 1 and 3 hours after infection, survival after 4 days, read-out: ED50",0.05 mg/kg
same,ED50,"S. aureus Schoch; S. aureus Schoch, albino mice, s.c. 1 and 3 hours after infection, survival after 4 days, read-out: ED50",12 mg/kg
same,ED50,"[3]; P. aeruginosa BA, albino mice, s.c. 1, 3 and 5 hours after infection, survival after 4 days, read-out: ED50",0.019 mg/kg
"Cc1cc(SCC2=C(C(=O)[O-])N3C(=O)[C@@H](NC(=O)/C(=N\OC(C)(C)C(=O)NNC(=O)c4ccc(O)c(O)c4)c4csc(N)n4)[C@H]3SC2)n2nc(CNC(=O)c3ccc(O)c(O)c3)nc2n1.[Na+] [Example 61, (6R,7R)-7-[(Z)-2-(2-amino-4-thiazolyl)-2-[[1-[3-(3,4-dihydroxybenzoyl)carbazoyl]-1-methylethoxy]imino]acetamido]-3-[[[2-[[(3,4-dihydroxybenzoyl)amino]methyl]-5-methyl-s-triazolo[1,5-a]pyrimidin-7-yl]thio]methyl]-8-oxo-5-thiaazabicyclo[4.2.0]oct-2-ene-2-carboxylic acid sodium salt (1:1)]",MIC,E. cloacae P99,1 µg/mL
same,MIC,P. aeruginosa 27853; 27853,< 0.1 µg/mL
same,MIC,E. coli 25922 [1]; 25922,< 0.1 µg/mL
same,MIC,K. pneumoniae 418; 418,< 0.1 µg/mL
same,MIC,P. aeruginosa MK1184; MK1184,< 0.1 µg/mL
same,MIC,P. aeruginosa BA,< 0.1 µg/mL
same,MIC,E. cloacae 908SSi; 908SSI,1 µg/mL
same,MIC,S. marcescens 69438; 69438,< 0.1 µg/mL
same,MIC,S. pyogenes 15; 15,1 µg/mL
same,MIC,P. mirabilis 2117; 2117,< 0.1 µg/mL
same,MIC,P. vulgaris 1028; 1028,< 0.1 µg/mL
same,MIC,E. cloacae 908R; 908R,0.5 µg/mL
same,MIC,S. pneumoniae BA,4 µg/mL
same,MIC,S. aureus 6538; 6538,16 µg/mL
same,MIC,P. aeruginosa 799/WT; 799/WT,< 0.1 µg/mL
same,MIC,K. oxytoca 1082; 1082,< 0.1 µg/mL
same,MIC,C. freundii 902; 902,< 0.1 µg/mL
same,MIC,P. aeruginosa 799/61; 799/61,< 0.1 µg/mL
same,ED50,"E. coli 25922 [2]; Escherichia coli, 25922, sc",< 0.1 mg/kg
same,ED50,S. aureus Schoch,8.4 mg/kg
same,ED50,[3],0.06 mg/kg
"Cc1cc(SCC2=C(C(=O)[O-])N3C(=O)[C@@H](NC(=O)/C(=N\OCc4ccc(O)c(O)c4F)c4csc(N)n4)[C@H]3SC2)n2nc(CS(=O)(=O)c3ccc(O)c(O)c3)nc2n1.[Na+] [Example 12, (6R,7R)-7-[(Z)-2-(2-amino-4-thiazolyl)-2-[[(2-fluoro-3,4-dihydroxybenzyl)oxy]imino]acetamido]-3-[[[2-[[(3,4-dihydroxyphenyl)sulphonyl]methyl]-5-methyl-s-triazolo[1,5-a]pyrimidin-7-yl]thio]methyl]-8-oxo-5-thia-1-azabicyclo[4.2.0]oct-2-ene-2-carboxylic acid sodium salt (1:1)]",MIC,E. cloacae P99,8 µg/mL
same,MIC,E. aerogenes CF153,4 µg/mL
same,MIC,P. aeruginosa 27853; 27853,< 0.1 µg/mL
same,MIC,E. coli 25922 [1]; 25922,< 0.1 µg/mL
same,MIC,K. pneumoniae 418; 418,< 0.1 µg/mL
same,MIC,P. aeruginosa MK1184; MK1184,< 0.1 µg/mL
same,MIC,P. aeruginosa BA,< 0.1 µg/mL
same,MIC,E. cloacae 908SSi; 908SSI,4 µg/mL
same,MIC,S. marcescens 69438; 69438,< 0.1 µg/mL
same,MIC,S. pyogenes 15; 15,2 µg/mL
same,MIC,P. mirabilis 2117; 2117,0.12 µg/mL
same,MIC,P. vulgaris 1028; 1028,0.25 µg/mL
same,MIC,E. cloacae 908R; 908R,2 µg/mL
same,MIC,S. aureus 6538; 6538,16 µg/mL
same,MIC,P. aeruginosa 799/WT; 799/WT,< 0.1 µg/mL
same,MIC,K. oxytoca 1082; 1082,0.5 µg/mL
same,MIC,C. freundii 902; 902,< 0.1 µg/mL
same,MIC,P. aeruginosa 799/61; 799/61,< 0.1 µg/mL
same,ED50,"E. coli 25922 [2]; Escherichia coli, 25922, sc",< 0.05 mg/kg
same,ED50,S. aureus Schoch,6.2 mg/kg
same,ED50,[3],0.028 mg/kg
